Measured values as given in patent US6525001B1, “Substituted pyrimidine and pyridine herbicides” (Mid-American Commercialization Corporation, priority 1997, dated 2003).

Assays:
Assay in all cases: Test B pre-/postemergence
Type in all cases: in vivo
Parameters in all cases: key: 0 is no effect; 10 is complete control
[1] = test system: wheat (Triticum aestivum)
How it was run: (§1)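 Response scores run from 0, meaning no effect, to 10, meaning complete control, assigned by eye relative to controls twelve to sixteen days after spraying. Treatment was both preemergence on planted seed and postemergence on plants at the 1- to 4-leaf stage.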

[2] = test system: sugar beet (Beta vulgaris)
How it was run: as §1

[3] = test system: broadleaf signalgrass (Brachiaria decumbens)
How it was run: as §1

[4] = test system: crabgrass (Digitaria sanguinalis)
How it was run: as §1

rape (Brassica napus) = test system: rape (Brassica napus)
How it was run: as §1

[5] = test system: momingglory (Ipomoea hederacea)
How it was run: as §1

[6] = test system: pigweed (Amaranthus retroflexus)
How it was run: as §1

[7] = test system: purple nutsedge (Cyperus rotundus); conditions: for Plant response rating, Nutsedge: Postemergence; for Nutsedge plant response rating: Preemergence
How it was run: as §1

[8] = test system: bedstraw (Galium aparine)
How it was run: as §1

[9] = test system: giant foxtail (Setaria faberii)
How it was run: as §1

[10] = test system: cocklebur (Xanthium strumarium)
How it was run: as §1

soybean (Glycine max) = test system: soybean (Glycine max)
How it was run: as §1

[11] = test system: velvetleaf (Abutilon theophrasti)
How it was run: as §1

corn (Zea mays) = test system: corn (Zea mays)
How it was run: as §1

CCc1cnc(-c2ccc(C(F)(F)F)cc2)nc1Cc1cccc(C(F)(F)F)c1 [Compound 22]
3: Morningglory plant response rating ([5]; Rate 62 g/ha, Preemergence) | Plant response rating, Corn (corn (Zea mays); Rate 62 g/ha, Postemergence) | Plant response rating, Corn (corn (Zea mays); Rate 125 g/ha, Postemergence)
4: Plant response rating, Wheat ([1]; Rate 62 g/ha, Postemergence) | Plant response rating, Wheat ([1]; Rate 125 g/ha, Postemergence) | Plant response rating, Wheat ([1]; Rate 250 g/ha, Preemergence) | Plant response rating, Corn (corn (Zea mays); Rate 250 g/ha, Postemergence)
1: Nutsedge plant response rating ([7]; Rate 125 g/ha) | Cocklebur plant response rating ([10]; Rate 62 g/ha, Preemergence) | Cocklebur plant response rating ([10]; Rate 125 g/ha, Preemergence) | Soybean plant response rating (soybean (Glycine max); Rate 62 g/ha, Preemergence) | Soybean plant response rating (soybean (Glycine max); Rate 125 g/ha, Preemergence)
8: Plant response rating, Bedstraw ([8]; Rate 125 g/ha, Postemergence) | Plant response rating, Bedstraw ([8]; Rate 250 g/ha, Postemergence) | Plant response rating, Giant foxtail ([9]; Rate 250 g/ha, Postemergence) | Plant response rating, Cocklebur ([10]; Rate 62 g/ha, Postemergence) | Plant response rating, Cocklebur ([10]; Rate 125 g/ha, Postemergence) | Plant response rating, Cocklebur ([10]; Rate 250 g/ha, Postemergence) | Plant response rating, Soybean (soybean (Glycine max); Rate 250 g/ha, Postemergence) | Plant response rating, Velvetleaf ([11]; Rate 62 g/ha, Postemergence) | Velvetleaf plant response rating ([11]; Rate 62 g/ha, Preemergence) | Plant response rating, Velvetleaf ([11]; Rate 125 g/ha, Postemergence) | Velvetleaf plant response rating ([11]; Rate 125 g/ha, Preemergence) | Plant response rating, Velvetleaf ([11]; Rate 250 g/ha, Preemergence)
9: Sugarbeets plant response rating ([2]; Rate 62 g/ha, Preemergence) | Sugarbeets plant response rating ([2]; Rate 125 g/ha, Preemergence) | B. signalgrass plant response rating ([3]; Rate 125 g/ha, Preemergence) | Plant response rating, B. signalgrass ([3]; Rate 250 g/ha, Preemergence) | Plant response rating, Crabgrass ([4]; Rate 62 g/ha, Postemergence) | Plant response rating, Crabgrass ([4]; Rate 125 g/ha, Postemergence) | Plant response rating, Crabgrass ([4]; Rate 250 g/ha, Postemergence) | Redroot pigweed plant response rating ([6]; Rate 62 g/ha, Preemergence) | Giant foxtail plant response rating ([9]; Rate 62 g/ha, Preemergence) | Plant response rating, Velvetleaf ([11]; Rate 250 g/ha, Postemergence)
2: Wheat plant response rating ([1]; Rate 62 g/ha, Preemergence) | Wheat plant response rating ([1]; Rate 125 g/ha, Preemergence) | Plant response rating, Cocklebur ([10]; Rate 250 g/ha, Preemergence) | Plant response rating, Soybean (soybean (Glycine max); Rate 250 g/ha, Preemergence) | Plant response rating, Corn (corn (Zea mays); Rate 250 g/ha, Preemergence)
7: Plant response rating, B. signalgrass ([3]; Rate 125 g/ha, Postemergence) | Plant response rating, B. signalgrass ([3]; Rate 250 g/ha, Postemergence) | Crabgrass plant response rating ([4]; Rate 62 g/ha, Preemergence) | Rape plant response rating (rape (Brassica napus); Rate 125 g/ha, Preemergence) | Bedstraw plant response rating ([8]; Rate 125 g/ha, Preemergence) | Plant response rating, Bedstraw ([8]; Rate 250 g/ha, Preemergence) | Plant response rating, Soybean (soybean (Glycine max); Rate 125 g/ha, Postemergence)
10: Plant response rating, Sugarbeets ([2]; Rate 62 g/ha, Postemergence) | Plant response rating, Sugarbeets ([2]; Rate 125 g/ha, Postemergence) | Plant response rating, Sugarbeets ([2]; Rate 250 g/ha, Postemergence) | Plant response rating, Sugarbeets ([2]; Rate 250 g/ha, Preemergence) | Crabgrass plant response rating ([4]; Rate 125 g/ha, Preemergence) | Plant response rating, Crabgrass ([4]; Rate 250 g/ha, Preemergence) | Plant response rating, Rape (rape (Brassica napus); Rate 62 g/ha, Postemergence) | Plant response rating, Rape (rape (Brassica napus); Rate 125 g/ha, Postemergence) | Plant response rating, Rape (rape (Brassica napus); Rate 250 g/ha, Postemergence) | Plant response rating, Rape (rape (Brassica napus); Rate 250 g/ha, Preemergence) | Plant response rating, Morningglory ([5]; Rate 62 g/ha, Postemergence) | Plant response rating, Morningglory ([5]; Rate 125 g/ha, Postemergence) | Morningglory plant response rating ([5]; Rate 125 g/ha, Preemergence) | Plant response rating, Morningglory ([5]; Rate 250 g/ha, Postemergence) | Plant response rating, Morningglory ([5]; Rate 250 g/ha, Preemergence) | Plant response rating, Redroot pigweed ([6]; Rate 62 g/ha, Postemergence) | Plant response rating, Redroot pigweed ([6]; Rate 125 g/ha, Postemergence) | Redroot pigweed plant response rating ([6]; Rate 125 g/ha, Preemergence) | Plant response rating, Redroot pigweed ([6]; Rate 250 g/ha, Postemergence) | Plant response rating, Redroot pigweed ([6]; Rate 250 g/ha, Preemergence) | Giant foxtail plant response rating ([9]; Rate 125 g/ha, Preemergence) | Plant response rating, Giant foxtail ([9]; Rate 250 g/ha, Preemergence)
0: Plant response rating, Nutsedge ([7]; Rate 62 g/ha) | Nutsedge plant response rating ([7]; Rate 62 g/ha) | Plant response rating, Nutsedge ([7]; Rate 125 g/ha) | Corn plant response rating (corn (Zea mays); Rate 62 g/ha, Preemergence) | Corn plant response rating (corn (Zea mays); Rate 125 g/ha, Preemergence)
6: Plant response rating, Wheat ([1]; Rate 250 g/ha, Postemergence) | Bedstraw plant response rating ([8]; Rate 62 g/ha, Preemergence) | Plant response rating, Giant foxtail ([9]; Rate 62 g/ha, Postemergence) | Plant response rating, Giant foxtail ([9]; Rate 125 g/ha, Postemergence) | Plant response rating, Soybean (soybean (Glycine max); Rate 62 g/ha, Postemergence)
5: Plant response rating, B. signalgrass ([3]; Rate 62 g/ha, Postemergence) | B. signalgrass plant response rating ([3]; Rate 62 g/ha, Preemergence) | Rape plant response rating (rape (Brassica napus); Rate 62 g/ha, Preemergence)

COc1cnc(-c2ccc(C(F)(F)F)cc2)nc1Cc1cccc(C(F)(F)F)c1 [Compound 23]
8: Sugarbeets plant response rating ([2]; Rate 62 g/ha, Preemergence) | Sugarbeets plant response rating ([2]; Rate 125 g/ha, Preemergence) | Morningglory plant response rating ([5]; Rate 125 g/ha, Preemergence) | Bedstraw plant response rating ([8]; Rate 125 g/ha, Preemergence) | Plant response rating, Soybean (soybean (Glycine max); Rate 62 g/ha, Postemergence) | Plant response rating, Soybean (soybean (Glycine max); Rate 125 g/ha, Postemergence) | Plant response rating, Soybean (soybean (Glycine max); Rate 250 g/ha, Postemergence)
1: Rape plant response rating (rape (Brassica napus); Rate 62 g/ha, Preemergence) | Cocklebur plant response rating ([10]; Rate 62 g/ha, Preemergence) | Cocklebur plant response rating ([10]; Rate 125 g/ha, Preemergence) | Soybean plant response rating (soybean (Glycine max); Rate 62 g/ha, Preemergence) | Soybean plant response rating (soybean (Glycine max); Rate 125 g/ha, Preemergence) | Plant response rating, Soybean (soybean (Glycine max); Rate 250 g/ha, Preemergence) | Velvetleaf plant response rating ([11]; Rate 62 g/ha, Preemergence) | Corn plant response rating (corn (Zea mays); Rate 125 g/ha, Preemergence) | Plant response rating, Corn (corn (Zea mays); Rate 250 g/ha, Preemergence)
10: Plant response rating, Sugarbeets ([2]; Rate 62 g/ha, Postemergence) | Plant response rating, Sugarbeets ([2]; Rate 125 g/ha, Postemergence) | Plant response rating, Sugarbeets ([2]; Rate 250 g/ha, Postemergence) | Plant response rating, Sugarbeets ([2]; Rate 250 g/ha, Preemergence) | Crabgrass plant response rating ([4]; Rate 125 g/ha, Preemergence) | Plant response rating, Crabgrass ([4]; Rate 250 g/ha, Preemergence) | Plant response rating, Rape (rape (Brassica napus); Rate 62 g/ha, Postemergence) | Plant response rating, Rape (rape (Brassica napus); Rate 125 g/ha, Postemergence) | Plant response rating, Rape (rape (Brassica napus); Rate 250 g/ha, Postemergence) | Plant response rating, Morningglory ([5]; Rate 250 g/ha, Preemergence) | Plant response rating, Redroot pigweed ([6]; Rate 125 g/ha, Postemergence) | Plant response rating, Redroot pigweed ([6]; Rate 250 g/ha, Postemergence) | Plant response rating, Redroot pigweed ([6]; Rate 250 g/ha, Preemergence) | Giant foxtail plant response rating ([9]; Rate 62 g/ha, Preemergence) | Giant foxtail plant response rating ([9]; Rate 125 g/ha, Preemergence) | Plant response rating, Giant foxtail ([9]; Rate 250 g/ha, Preemergence) | Plant response rating, Cocklebur ([10]; Rate 125 g/ha, Postemergence) | Plant response rating, Cocklebur ([10]; Rate 250 g/ha, Postemergence) | Plant response rating, Velvetleaf ([11]; Rate 250 g/ha, Preemergence)
3: Plant response rating, Wheat ([1]; Rate 62 g/ha, Postemergence) | Wheat plant response rating ([1]; Rate 125 g/ha, Preemergence) | Rape plant response rating (rape (Brassica napus); Rate 125 g/ha, Preemergence) | Plant response rating, Cocklebur ([10]; Rate 250 g/ha, Preemergence) | Velvetleaf plant response rating ([11]; Rate 125 g/ha, Preemergence) | Plant response rating, Corn (corn (Zea mays); Rate 125 g/ha, Postemergence) | Plant response rating, Corn (corn (Zea mays); Rate 250 g/ha, Postemergence)
5: Plant response rating, Wheat ([1]; Rate 250 g/ha, Postemergence) | Plant response rating, B. signalgrass ([3]; Rate 125 g/ha, Postemergence) | Plant response rating, Giant foxtail ([9]; Rate 125 g/ha, Postemergence)
4: Plant response rating, Wheat ([1]; Rate 125 g/ha, Postemergence) | Plant response rating, B. signalgrass ([3]; Rate 62 g/ha, Postemergence) | Morningglory plant response rating ([5]; Rate 62 g/ha, Preemergence)
7: Plant response rating, Crabgrass ([4]; Rate 62 g/ha, Postemergence) | Plant response rating, Rape (rape (Brassica napus); Rate 250 g/ha, Preemergence)
2: Wheat plant response rating ([1]; Rate 62 g/ha, Preemergence) | Plant response rating, Giant foxtail ([9]; Rate 62 g/ha, Postemergence) | Plant response rating, Corn (corn (Zea mays); Rate 62 g/ha, Postemergence)
9: B. signalgrass plant response rating ([3]; Rate 62 g/ha, Preemergence) | B. signalgrass plant response rating ([3]; Rate 125 g/ha, Preemergence) | Plant response rating, B. signalgrass ([3]; Rate 250 g/ha, Postemergence) | Plant response rating, B. signalgrass ([3]; Rate 250 g/ha, Preemergence) | Crabgrass plant response rating ([4]; Rate 62 g/ha, Preemergence) | Plant response rating, Crabgrass ([4]; Rate 125 g/ha, Postemergence) | Plant response rating, Crabgrass ([4]; Rate 250 g/ha, Postemergence) | Plant response rating, Morningglory ([5]; Rate 125 g/ha, Postemergence) | Plant response rating, Morningglory ([5]; Rate 250 g/ha, Postemergence) | Plant response rating, Redroot pigweed ([6]; Rate 62 g/ha, Postemergence) | Redroot pigweed plant response rating ([6]; Rate 62 g/ha, Preemergence) | Redroot pigweed plant response rating ([6]; Rate 125 g/ha, Preemergence) | Plant response rating, Bedstraw ([8]; Rate 62 g/ha, Postemergence) | Plant response rating, Bedstraw ([8]; Rate 125 g/ha, Postemergence) | Plant response rating, Bedstraw ([8]; Rate 250 g/ha, Postemergence) | Plant response rating, Bedstraw ([8]; Rate 250 g/ha, Preemergence) | Plant response rating, Giant foxtail ([9]; Rate 250 g/ha, Postemergence) | Plant response rating, Cocklebur ([10]; Rate 62 g/ha, Postemergence) | Plant response rating, Velvetleaf ([11]; Rate 62 g/ha, Postemergence) | Plant response rating, Velvetleaf ([11]; Rate 125 g/ha, Postemergence) | Plant response rating, Velvetleaf ([11]; Rate 250 g/ha, Postemergence)
0: Plant response rating, Nutsedge ([7]; Rate 62 g/ha) | Plant response rating, Nutsedge ([7]; Rate 125 g/ha) | Nutsedge plant response rating ([7]; Rate 125 g/ha) | Corn plant response rating (corn (Zea mays); Rate 62 g/ha, Preemergence)
6: Plant response rating, Wheat ([1]; Rate 250 g/ha, Preemergence) | Plant response rating, Morningglory ([5]; Rate 62 g/ha, Postemergence)
